Where a name gives a salt, the structure may show the parent alone. Read-outs that look alike come from different tables or passages of the source.
How the values were obtained:
[1] = tested on: p-Phenylquinone-induced agony (writhing response) in mice; test: p-Phenylquinone-induced agony test in mice (oral administration); type: in vivo, Male ddy mice; conditions: Mus musculus, 0.25 h, read-out: Analgesic effect (Oral Administration) (ED50, mg/kg) Phenylquinone-induced agony test
Method: p-Phenylquinone-induced agony test in mice (oral administration)
According to the method of Siegmund et al. [Proc. Soc. Exptl. Biol. Med., 95, 729 (1957)], the title test was conducted. Male ddy mice (Japan SLC) each weighing about 20 g were fasted for about 16 hours from the day before the test and divided into groups each including from 5 to 10 mice.
A compound to be tested was dissolved in 0.5% tragacanth and administered orally. After 15 minutes, each 0.1 ml/mouse of 0.03% p-phenylquinone solution was injected intraperitoneally. During 5 to 10 minutes after injection, the number of agony reactions (writhing response) observed in each mouse was counted. Those mice showing 1/2 or less of the mean value of the numbers of agony reactions observed in the control mice injected with only physiological saline were regarded as analgesic-effective animals.

[2] = tested on: p-Phenylquinone-induced agony (writhing response) in mice; test: animal or person; type: in vivo, Male ddy mice; conditions: Mus musculus, sc, 0.25 h, read-out: Analgesic effect (ED50, μg/kg sc) Phenylquinone-induced agony test
k-receptor = biological target: T1, k-receptor (Cavia porcellus, UniProt P41144); test: biochemical; type: binding, guinea pig
T1 construct: The whole brain of male Hertley guinea pigs (Japan SLC); from tissue; host or cells: crude membranes of guinea pig whole brain without cerebellum (Hartley, printed 'Hertley', males)
T1 sequence (P41144 whole entry): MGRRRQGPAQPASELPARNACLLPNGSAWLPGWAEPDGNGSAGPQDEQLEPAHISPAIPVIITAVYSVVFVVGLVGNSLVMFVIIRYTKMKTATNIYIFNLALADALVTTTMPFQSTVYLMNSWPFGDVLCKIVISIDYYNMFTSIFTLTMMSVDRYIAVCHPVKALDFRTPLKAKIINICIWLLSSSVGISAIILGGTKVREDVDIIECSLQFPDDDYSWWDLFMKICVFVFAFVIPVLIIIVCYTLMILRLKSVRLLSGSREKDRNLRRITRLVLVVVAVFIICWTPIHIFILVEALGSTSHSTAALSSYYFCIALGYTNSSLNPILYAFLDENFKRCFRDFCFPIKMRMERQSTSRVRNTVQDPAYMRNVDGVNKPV

μ-receptor = biological target: T2, μ-receptor (Cavia porcellus, UniProt A0ACM8Q262); design: species or system guinea pig; conditions: read-out: Binding to the receptors (IC50, nM) μ
T2 construct: tritiated DAGO (DAMGO) displacement
T2 sequence (A0ACM8Q262 1-400): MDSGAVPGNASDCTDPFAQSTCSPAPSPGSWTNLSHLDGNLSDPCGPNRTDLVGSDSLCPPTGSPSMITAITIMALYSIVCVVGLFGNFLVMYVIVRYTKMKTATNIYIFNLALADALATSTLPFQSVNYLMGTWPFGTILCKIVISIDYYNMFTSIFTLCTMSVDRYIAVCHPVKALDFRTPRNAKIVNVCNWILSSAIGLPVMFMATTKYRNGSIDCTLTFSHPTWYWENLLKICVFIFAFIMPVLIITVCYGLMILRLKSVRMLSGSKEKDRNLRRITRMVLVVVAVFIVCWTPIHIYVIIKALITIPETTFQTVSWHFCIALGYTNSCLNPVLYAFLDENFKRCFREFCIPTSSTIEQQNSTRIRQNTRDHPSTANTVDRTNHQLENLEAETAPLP

[3] = read-out: Binding to the receptors (IC50, nM) k

| Compound | ED50 [1] [mg/kg] | ED50 [2] [µg/kg] | IC50 (k-receptor; [3]) [nM] | IC50 (μ-receptor) [nM] | IC50 (k-receptor) [nM] |
| --- | --- | --- | --- | --- | --- |
| O=C([C@H]1CCc2cc(Cl)c(Cl)cc21)N1CCSC[C@H]1CN1CCCC1 (relative stereo) [Racemate Corresponding to Compound of Example 1] | 0.18 | – | – | – | – |
| O=C1C[C@H](C(=O)N2CCSC[C@H]2CN2CCCC2)c2cc(Cl)c(Cl)cc21 (relative stereo) [Racemate Corresponding to Compound of Example 2] | 0.79 | – | – | – | – |
| O=C1CC[C@H](C(=O)N2CCSC[C@H]2CN2CCCCC2)c2cc(Cl)c(Cl)cc21 (relative stereo) [Racemate Corresponding to Compound of Example 3] | 1.22 | – | – | – | – |
| O=C([C@@H]1CCc2cc(Cl)c(Cl)cc21)N1CCSC[C@H]1CN1CCCC1 [Corresponding (3R, 1R)] | – | 23900 | 3500 | 32000 | – |
| O=C([C@@H]1CCc2cc(Cl)c(Cl)cc21)N1CCSC[C@@H]1CN1CCCC1 [Corresponding (3S, 1R)] | – | 10900 | – | 12000 | 21000 |
| O=C([C@H]1CCc2cc(Cl)c(Cl)cc21)N1CCSC[C@@H]1CN1CCCC1 [Corresponding (3S, 1S)] | – | 7800 | – | 15000 | 920 |
| O=C([C@H]1CCc2cc(Cl)c(Cl)cc21)N1CCSC[C@H]1CN1CCCC1 [Example 1, (3R)-3-(1-Pyrrolidinylmethyl)-4-[(1S)-(5,6-dichloro-1-indanecarbonyl]thiomorpholine hydrochloride] | 0.011 | 1.3 | 0.44 | 300 | – |
| O=C1C[C@H](C(=O)N2CCSC[C@H]2CN2CCCC2)c2cc(Cl)c(Cl)cc21 [Example 2, (3R)-3-(1-Pyrrolidinylmethyl)-4-[(1S)-3-oxo-5,6-dichloro-1-indanecarbonyl]thiomorpholine hydrochloride] | 0.031 | 0.6 | – | 330 | 0.46 |
| O=C1CC[C@H](C(=O)N2CCSC[C@H]2CN2CCCCC2)c2cc(Cl)c(Cl)cc21 [Example 3, (3R)-3-(1-Piperidinylmethyl)-4-[(1S)-6,7-dichloro-4(3H)-oxo-1,2-dihydro-1-naphthoyl]thiomorpholine hydrochloride] | 0.29 | 13 | 1.7 | 1800 | – |
